Where two headings read alike, the source gives them in different places. Ends that are not written are not given here.
Tests used:
Experiment in all cases: biochemical
[1] = target: HLA-DP DPA1*03:01/DPB1*04:02 (Homo sapiens, UniProt P04440+P20036, A42M/A65V/A84D/A85E/L207M/L97S)
[2] = target: T1, HLA-DP DPA1*01:03/DPB1*04:01 (Homo sapiens, UniProt P04440+P20036); assay type: binding
T1 sequence (P20036 29-260): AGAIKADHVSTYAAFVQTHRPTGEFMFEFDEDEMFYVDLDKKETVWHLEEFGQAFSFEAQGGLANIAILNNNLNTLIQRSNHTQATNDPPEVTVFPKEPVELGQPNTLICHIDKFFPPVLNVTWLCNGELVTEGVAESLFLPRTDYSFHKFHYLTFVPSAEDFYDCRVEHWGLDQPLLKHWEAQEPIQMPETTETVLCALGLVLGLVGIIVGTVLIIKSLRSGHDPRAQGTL
T1 sequence (P04440 30-258): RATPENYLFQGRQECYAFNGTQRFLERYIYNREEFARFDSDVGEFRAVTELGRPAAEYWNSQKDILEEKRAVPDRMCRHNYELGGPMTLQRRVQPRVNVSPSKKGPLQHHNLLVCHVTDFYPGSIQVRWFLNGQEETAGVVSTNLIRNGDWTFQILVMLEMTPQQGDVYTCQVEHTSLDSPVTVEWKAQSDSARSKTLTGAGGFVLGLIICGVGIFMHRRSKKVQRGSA

HLA-DR DRB1*09:01 = HLA-DR DRB1*09:01 (Homo sapiens, UniProt P01903+P01911, A100R/A103E/D57H/D86V/F55Y/F60I/F76Y/I96F/K127E/L162R/M171V/P40D/Q125H/Q99R/R33Q/R42F/S133A/S66N/T210M/V115G/W38K/Y107V/Y59G/Y89S); assay type: binding
[3] = target: T2, HLA-DP DPA1*01:03/DPB1*03:01 (Homo sapiens, UniProt P04440+P20036, A65V/A84D/A85E/E86D/F38Y/G113D/G114E/G40L/I94L/L37V/M105V/M116V/P115A/R125K/T199I); assay type: binding
T2 sequence (P20036 29-260): T1 sequence (P20036 29-260)
T2 sequence (P04440 30-258 L37V/F38Y/G40L/A65V/A84D/A85E/E86D/I94L/M105V/G113D/G114E/P115A/M116V/R125K/T199I): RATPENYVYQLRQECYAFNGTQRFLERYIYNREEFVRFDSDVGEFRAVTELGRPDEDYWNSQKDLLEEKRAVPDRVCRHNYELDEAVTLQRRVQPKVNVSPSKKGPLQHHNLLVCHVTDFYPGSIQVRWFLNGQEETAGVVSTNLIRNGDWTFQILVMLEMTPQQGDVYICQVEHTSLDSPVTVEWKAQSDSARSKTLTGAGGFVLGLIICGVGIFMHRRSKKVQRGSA

HLA-DR DRB1*15:01 = HLA-DR DRB1*15:01 (Homo sapiens, UniProt P01903+P01911); assay type: binding
[4] = target: HLA-DP DPA1*02:01/DPB1*01:01 (Homo sapiens, UniProt P04440+P20036, F191V/F38Y/F64Y/G113D/G114E/K142R/L158P/L37V/M105V/M116V/M62Q/P115A/Q81R/R125K/R223Q/T114A/T199I/T259P)
Sequence of HLA-DP DPA1*02:01/DPB1*01:01 (P20036 29-260 A42M/M62Q/Q81R/T114A/K142R/L158P/F191V/T259P, other chains not shown): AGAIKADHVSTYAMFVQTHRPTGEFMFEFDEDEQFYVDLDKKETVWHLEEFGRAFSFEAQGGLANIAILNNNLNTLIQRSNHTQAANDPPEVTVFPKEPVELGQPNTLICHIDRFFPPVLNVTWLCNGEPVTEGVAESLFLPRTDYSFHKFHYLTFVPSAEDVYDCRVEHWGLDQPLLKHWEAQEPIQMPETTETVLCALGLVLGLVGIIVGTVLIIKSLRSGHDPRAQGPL
HLA-DR DRB1*13:02 = HLA-DR DRB1*13:02 (Homo sapiens, UniProt P01903+P01911, A100E/A169T/K41T/L162R/M171V/P40S/Q125H/Q178H/Q39Y/Q99D/R42S/S66N/T262R/V115G/W38E/Y61H); assay type: binding
HLA-DR DRB1*03:01 = HLA-DR DRB1*03:01 (Homo sapiens, UniProt P01903+P01911, A100K/A102G/A103R/A169T/F55Y/I96L/K41T/L162R/M171V/P40S/Q125H/Q178H/Q39Y/R42S/S66N/T106N/T262R/W38E/Y61H); assay type: binding
HLA-DR DRB1*10:01 = HLA-DR DRB1*10:01 (Homo sapiens, UniProt P01903+P01911, A100R/A169T/D57E/F55L/F60V/F69Y/F76Y/I96L/L162R/M171V/P40V/Q260P/Q39E/Q99R/R195Q/R42F/S149N/S66Y/T210M/V115G/V67A/W38E/Y59R/Y61H); assay type: binding
HLA-DR DRB1*07:01 = HLA-DR DRB1*07:01 (Homo sapiens, UniProt P01903+P01911, A100R/A102G/A103Q/D57E/D86V/E43K/F76Y/K127E/L162R/M171V/P40G/Q125H/Q99D/R33Q/R42Y/R54Q/S133A/S66F/T210M/V115G/Y107V/Y59L/Y89S); assay type: binding
HLA-DR DRB1*08:02 = HLA-DR DRB1*08:02 (Homo sapiens, UniProt P01903+P01911, A100R/A103L/A169T/F76Y/H45Y/I96F/K41T/L162R/M171V/P40S/Q125H/Q178H/Q39Y/Q99D/R218S/R42G/S66Y/V115G/W38E); assay type: binding
HLA-DR DRB1*04:01 = HLA-DR DRB1*04:01 (Homo sapiens, UniProt P01903+P01911, A100K/A169T/F76Y/I96L/K127E/L162R/M171V/N62H/P40V/Q125Y/R42H/S133A/S149N/S66Y/V115G/V209L/W38E); assay type: binding
HLA-DR DRB4*01:01 = HLA-DR DRB4*01:01 (Homo sapiens, UniProt P01903+P13762, G164S); assay type: binding
HLA-DR DRB1*01:01 = HLA-DR DRB1*01:01 (Homo sapiens, UniProt P01903+P01911, A100R/D57E/F55L/F60I/F76Y/I96L/L162R/M171V/P40L/Q125E/R42F/V115G/Y59C); assay type: binding
[5] = read-out: Binding capacity/IC50 (nM) DPA1*01:03 DPB1*04:01
[6] = read-out: Binding capacity/IC50 (nM) DRB1*09:01
[7] = read-out: Binding capacity/IC50 (nM) DRB1*15:01
[8] = read-out: Binding capacity/IC50 (nM) DRB1*13:02
[9] = read-out: Binding capacity/IC50 (nM) DRB1*03:01
[10] = read-out: Binding capacity/IC50 (nM) DRB1*10:01
[11] = read-out: Binding capacity/IC50 (nM) DRB1*07:01
[12] = read-out: Binding capacity/IC50 (nM) DRB1*08:02
[13] = read-out: Binding capacity/IC50 (nM) DRB1*04:01
[14] = read-out: Binding capacity/IC50 (nM) DRB4*01:01
[15] = read-out: Binding capacity/IC50 (nM) DRB1*01:01
[16] = read-out: Binding capacity/IC50 (nM) DPA1*01:03 DPB1*03:01

Molecule | IC50 [1] [nM] | IC50 [2, 5] [nM] | IC50 (HLA-DR DRB1*09:01; [6]) [nM] | IC50 [3] [nM] | IC50 (HLA-DR DRB1*15:01; [7]) [nM] | IC50 [4] [nM] | IC50 (HLA-DR DRB1*13:02; [8]) [nM] | IC50 (HLA-DR DRB1*03:01; [9]) [nM] | IC50 (HLA-DR DRB1*10:01; [10]) [nM] | IC50 (HLA-DR DRB1*07:01; [11]) [nM] | IC50 (HLA-DR DRB1*08:02; [12]) [nM] | IC50 (HLA-DR DRB1*04:01; [13]) [nM] | IC50 (HLA-DR DRB4*01:01; [14]) [nM] | IC50 (HLA-DR DRB1*15:01) [nM] | IC50 (HLA-DR DRB1*01:01; [15]) [nM] | IC50 (HLA-DR DRB1*09:01) [nM] | IC50 (HLA-DR DRB1*03:01) [nM] | IC50 (HLA-DR DRB1*07:01) [nM] | IC50 (HLA-DR DRB1*01:01) [nM] | IC50 (HLA-DR DRB1*08:02) [nM] | also measured
YAKMRSAHTNDVKQL-NH2 [RT(354-368)] | 6960 | 3550 | 66 | 11900 | 773 | 4430 | 74 | 7100 | 16 | 120 | 2.1 | 79 | 1440 | – | – | – | – | – | – | – | –
CC[C@H](C)[C@H](NC(=O)CNC(=O)[C@H](CCCCN)NC(=O)[C@H](Cc1c[nH]cn1)NC(=O)[C@H](C)NC(=O)[C@@H]1CCCN1C(=O)[C@@H](NC(=O)[C@H](Cc1c[nH]c2ccccc12)NC(=O)[C@H](CO)NC(=O)[C@H](CC(C)C)NC(=O)[C@H](Cc1ccc(O)cc1)NC(=O)[C@@H](NC(=O)[C@H](CCCCN)NC(=O)[C@H](CCC(=O)O)NC(=O)[C@@H](N)CCCCN)C(C)C)C(C)C)C(=O)NCC(=O)NCC(=O)N[C@@H](CC(N)=O)C(=O)N[C@@H](CCC(=O)O)C(N)=O [RT(528-546)] | 150 | 1390 | 33 | 76 | – | 585 | – | 612 | – | 6.3 | – | 68 | 57 | 97 | 16 | – | – | – | – | – | –
VGSLQYLALTALITPKK-NH2 [vif(142-158)] | 1.5 | 33 | – | 74 | 3.8 | 115 | – | – | – | – | – | – | – | – | – | 64 | 4510 | 4.1 | 0.35 | 25 | IC50 (HLA-DR DRB1*13:02): 7.1 nM; IC50 (HLA-DR DRB1*04:01): 6.4 nM; IC50 (HLA-DR DRB4*01:01): 78 nM
IRYPLTFGWCFKLVPVDPREVEEA-NH2 [nef(133-156)] | 670 | 44 | 360 | – | – | 249 | 4290 | 704 | – | 472 | 2160 | – | 1640 | 718 | 315 | – | – | – | – | – | IC50 [3, 16]: 5360 nM
IVALIIAIVVWTIV-NH2 [vpu(13-26)] | 1300 | > 30000 | 6640 | – | 2030 | 26100 | > 30000 | > 30000 | 1780 | > 30000 | 765 | 19600 | – | – | 261 | – | – | – | – | – | IC50 [3, 16]: 2580 nM
EAVRHFPRPWLHGL-NH2 [vpr(29-42)] | 139 | – | – | 11 | 112 | 8610 | – | – | – | – | – | – | 278 | – | – | 1270 | > 30000 | 1390 | 71 | 130 | IC50 [2]: 17000 nM; IC50 (HLA-DR DRB1*10:01): 311 nM; IC50 (HLA-DR DRB1*04:01): 1290 nM
